From PubChem BioAssay AID1259407 (Chemical Carcinogenesis Research Information System (CCRIS), 2018)
Active and inactive are the calls of the source. The rule behind the calls is not given here.

System: CCRIS mutagenicity, Ames/micronucleus/aberration tests
Experiment: CCRIS mutagenicity studies
[1] = Test System: AMES SALMONELLA TYPHIMURIUM, Strain/Indicator: TA98, Metabolic Activation: NONE, Method: STANDARD PLATE
[2] = Test System: AMES SALMONELLA TYPHIMURIUM, Strain/Indicator: TA98, Metabolic Activation: RAT, LIVER, S-9, AROCLOR 1254, Method: STANDARD PLATE
[3] = Test System: AMES SALMONELLA TYPHIMURIUM, Strain/Indicator: TA100, Metabolic Activation: NONE, Method: STANDARD PLATE
[4] = Test System: AMES SALMONELLA TYPHIMURIUM, Strain/Indicator: TA100, Metabolic Activation: RAT, LIVER, S-9, AROCLOR 1254, Method: STANDARD PLATE
[5] = Test System: AMES SALMONELLA TYPHIMURIUM, Strain/Indicator: TA1535, Metabolic Activation: NONE, Method: STANDARD PLATE
[6] = Test System: AMES SALMONELLA TYPHIMURIUM, Strain/Indicator: TA1535, Metabolic Activation: RAT, LIVER, S-9, AROCLOR 1254, Method: STANDARD PLATE
[7] = Test System: AMES SALMONELLA TYPHIMURIUM, Strain/Indicator: TA1537, Metabolic Activation: NONE, Method: STANDARD PLATE
[8] = Test System: AMES SALMONELLA TYPHIMURIUM, Strain/Indicator: TA1537, Metabolic Activation: RAT, LIVER, S-9, AROCLOR 1254, Method: STANDARD PLATE
[9] = Test System: AMES SALMONELLA TYPHIMURIUM, Strain/Indicator: TA1538, Metabolic Activation: NONE, Method: STANDARD PLATE
[10] = Test System: AMES SALMONELLA TYPHIMURIUM, Strain/Indicator: TA1538, Metabolic Activation: RAT, LIVER, S-9, AROCLOR 1254, Method: STANDARD PLATE

OC(O)C(Cl)(Cl)Cl
mutagenic call (End Point: IN VITRO MICRONUCLEUS, Test System: HAMSTER V79 CELLS, Metabolic Activation: NONE): active; positive | mutagenic call (End Point: IN VIVO MICRONUCLEUS, Test System: BLOOD LYMPHOCYTES, Species: HUMAN, Strain/Sex: INFANTS/MALE, FEMALE, Route: ORAL): active; positive | mutagenic call (Test System: AMES SALMONELLA TYPHIMURIUM, Strain/Indicator: TA98, Metabolic Activation: HAMSTER LIVER S-9 (10%), AROCLOR 1254, Method: PREINCUBATION): inactive; negative | mutagenic call (Test System: AMES SALMONELLA TYPHIMURIUM, Strain/Indicator: TA98, Metabolic Activation: NONE, Method: PREINCUBATION): inactive; negative | mutagenic call [1]: inactive; negative | mutagenic call (Test System: AMES SALMONELLA TYPHIMURIUM, Strain/Indicator: TA98, Metabolic Activation: RAT LIVER S-9 (10%), AROCLOR 1254, Method: PREINCUBATION): inactive; negative | mutagenic call [2]: inactive; negative | mutagenic call (Test System: AMES SALMONELLA TYPHIMURIUM, Strain/Indicator: TA98, Metabolic Activation: RAT, LIVER, S-9, PHENOBARBITAL AND 5,6-BENZOFLAVONE, Method: PREINCUBATION): inactive; negative | mutagenic call (Test System: AMES SALMONELLA TYPHIMURIUM, Strain/Indicator: TA100, Metabolic Activation: HAMSTER LIVER S-9 (10%), AROCLOR 1254, Method: PREINCUBATION): active; positive | mutagenic call (Test System: AMES SALMONELLA TYPHIMURIUM, Strain/Indicator: TA100, Metabolic Activation: NONE, Method: FLUCTUATION TEST): inactive; negative | mutagenic call [3]: inactive; negative | mutagenic call (Test System: AMES SALMONELLA TYPHIMURIUM, Strain/Indicator: TA100, Metabolic Activation: RAT LIVER S-9 (10%), AROCLOR 1254, Method: PREINCUBATION): active; positive | mutagenic call (Test System: AMES SALMONELLA TYPHIMURIUM, Strain/Indicator: TA100, Metabolic Activation: RAT, LIVER, S-9, AROCLOR 1254, Method: FLUCTUATION TEST): active; positive | mutagenic call [4]: inactive; negative | mutagenic call (Test System: AMES SALMONELLA TYPHIMURIUM, Strain/Indicator: TA100, Metabolic Activation: RAT, LIVER, S-9, PHENOBARBITAL AND 5,6-BENZOFLAVONE, Method: PREINCUBATION): inactive; negative | mutagenic call (Test System: AMES SALMONELLA TYPHIMURIUM, Strain/Indicator: TA1535, Metabolic Activation: HAMSTER LIVER S-9 (10%), AROCLOR 1254, Method: PREINCUBATION): inactive; negative | mutagenic call (Test System: AMES SALMONELLA TYPHIMURIUM, Strain/Indicator: TA1535, Metabolic Activation: NONE, Method: PREINCUBATION): inactive; negative | mutagenic call [5]: inactive; negative | mutagenic call (Test System: AMES SALMONELLA TYPHIMURIUM, Strain/Indicator: TA1535, Metabolic Activation: RAT LIVER S-9 (10%), AROCLOR 1254, Method: PREINCUBATION): inactive; negative | mutagenic call [6]: inactive; negative | mutagenic call (Test System: AMES SALMONELLA TYPHIMURIUM, Strain/Indicator: TA1537, Metabolic Activation: HAMSTER LIVER S-9 (10%), AROCLOR 1254, Method: PREINCUBATION): inactive; negative | mutagenic call (Test System: AMES SALMONELLA TYPHIMURIUM, Strain/Indicator: TA1537, Metabolic Activation: NONE, Method: PREINCUBATION): inactive; negative | mutagenic call [7]: inactive; negative | mutagenic call (Test System: AMES SALMONELLA TYPHIMURIUM, Strain/Indicator: TA1537, Metabolic Activation: RAT LIVER S-9 (10%), AROCLOR 1254, Method: PREINCUBATION): inactive; negative | mutagenic call [8]: inactive; negative | mutagenic call [9]: inactive; negative | mutagenic call [10]: inactive; negative | mutagenic call (Test System: MOUSE LYMPHOMA, Strain/Indicator: L5178Y (TK+/TK- -3.7.2C), Metabolic Activation: NONE): active; positive

CN=C([S-])N/N=C/C(C)=N/NC([S-])=NC.[Cu+2]
mutagenic call [1]: inactive; negative | mutagenic call (Test System: AMES SALMONELLA TYPHIMURIUM, Strain/Indicator: TA98, Metabolic Activation: RAT, LIVER, S-9, AROCLOR, Method: STANDARD PLATE): inactive; negative | mutagenic call [3]: inactive; negative | mutagenic call (Test System: AMES SALMONELLA TYPHIMURIUM, Strain/Indicator: TA100, Metabolic Activation: RAT, LIVER, S-9, AROCLOR, Method: STANDARD PLATE): inactive; negative

C[C@@H]1O[C@@H](OC[C@H]2O[C@@H](Oc3c(-c4ccc(OCCO)c(OCCO)c4)oc4cc(OCCO)cc(O)c4c3=O)[C@H](O)[C@@H](O)[C@@H]2O)[C@H](O)[C@H](O)[C@H]1O
mutagenic call [1]: inactive; negative | mutagenic call [2]: inactive; negative | mutagenic call [3]: inactive; negative | mutagenic call [4]: inactive; negative | mutagenic call [5]: inactive; negative | mutagenic call [6]: inactive; negative | mutagenic call [7]: inactive; negative | mutagenic call [8]: inactive; negative | mutagenic call [9]: inactive; negative | mutagenic call [10]: inactive; negative

O=c1c2c(O)cccc2oc2c3c(cc(O)c12)O[C@H]1OC=C[C@@H]31
mutagenic call (Test System: AMES SALMONELLA TYPHIMURIUM, Strain/Indicator: TA98, Metabolic Activation: RAT, LIVER, S-9, PHENOBARBITAL, Method: STANDARD PLATE): inactive; negative | mutagenic call (Test System: AMES SALMONELLA TYPHIMURIUM, Strain/Indicator: TA100, Metabolic Activation: RAT, LIVER, S-9, PHENOBARBITAL, Method: STANDARD PLATE): active; positive

CS(=O)CC[C@H](N)C(=O)O.Cc1ccc(NCC(=O)N(CC(=O)O)CC(=O)O)c(C)c1.[H+].[H+].[Pt]
mutagenic call (Test System: MOUSE LYMPHOMA, Strain/Indicator: L5178Y(LY-R) (HGPRT)/6-THIOGUANINE, Metabolic Activation: NONE): active; positive
